Measurements from the supplement of paper PMC10307832.

Compound: Cc1ccc(C(=O)Nc2ccc(CN3CCN(C)CC3)c(C(F)(F)F)c2)cc1C#Cc1cnc2cccnn12 [Ponatinib] + CCNC(=O)c1noc(-c2cc(C(C)C)c(O)cc2O)c1-c1ccc(CN2CCOCC2)cc1 [Luminespib] (partner 0.01 µM)
Test: relative viability (nuclei count vs DMSO), 5 days (fraction); higher = more cells survive
In short: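 Values are medians from duplicate plates. Each reflects relative viability, defined as the nuclei count of treated wells over that of vehicle wells. Lung cancer cell lines in 1536-well plates were pin-tool dosed one day after seeding with one drug alone or with a fixed anchor-drug dose plus five library-drug doses (not always all listed) in √10 steps, then fixed, stained and imaged at 4× after 5 days.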

Row | Cell Line | relative viability (first compound 0.002 µM) | relative viability (first compound 0.006325 µM) | relative viability (first compound 0.06325 µM) | relative viability (first compound 0.2 µM)
1 | NCI-H2342 | 0.759 | 0.701 | 0.834 | 0.601
2 | HCC-15 | 0.306 | 0.22 | 0.661 | 0.212
3 | A-427 | 0.908 | 0.799 | 1.08 | 0.75
4 | NCI-H2228 | 0.134 | 0.178 | 0.109 | 0.129
5 | NCI-H1734 | 0.195 | 0.181 | 0.186 | 0.173
6 | NCI-H2347 | 0.6 | 0.544 | 0.487 | 0.435
7 | PC-3 [JPC-3] | 0.649 | 0.697 | 0.811 | 0.668
8 | NCI-H1915 | 0.754 | 0.769 | 0.805 | 0.672
9 | NCI-H1666 | 1.02 | 0.998 | 1.09 | 0.986
10 | NCI-H1395 | 0.644 | 0.601 | 0.829 | 0.637
11 | NCI-H727 | 0.321 | 0.444 | 0.516 | 0.261
12 | RERF-LC-KJ | 1.17 | 1.32 | 1.47 | 1.21
13 | NCI-H1623 | 0.372 | 0.484 | 0.491 | 0.426
14 | LC-2-ad | 0.968 | 0.93 | 1.17 | 0.855
15 | CAL-12T | 0.37 | 0.505 | 0.436 | 0.447
16 | SK-LU-1 | 0.196 | 0.213 | 0.2 | 0.175
17 | NCI-H1650 | 0.255 | 0.236 | 0.2 | 0.186
18 | BEN | 0.259 | 0.296 | 0.24 | 0.576

Row | Cell Line | relative viability (first compound 0.002 µM) | relative viability (first compound 0.006325 µM) | relative viability (first compound 0.06325 µM) | relative viability (first compound 0.2 µM)
19 | EMC-BAC-2 | 1.06 | 1.15 | 1.28 | 1.07
20 | LU99A | 0.288 | 0.25 | 0.274 | 0.242
21 | ABC-1 | 0.558 | 0.42 | 0.745 | 0.239
22 | NCI-H358 | 0.406 | 0.418 | 0.597 | 0.262
23 | NCI-H2405 | 0.664 | 0.833 | 0.941 | 0.64
24 | NCI-H1993 | 0.778 | 0.921 | 0.991 | 0.932
25 | NCI-H441 | 0.359 | 0.354 | 0.305 | 0.315
26 | PC-14 | 0.127 | 0.147 | 0.195 | 0.138
27 | HARA | 0.683 | 0.948 | 0.749 | 0.682
28 | NCI-H2087 | 0.167 | 0.135 | 0.178 | 0.176
29 | NCI-H1437 | 1.18 | 1.09 | 1.25 | 1.09
30 | NCI-H1792 | 0.354 | 0.422 | 0.465 | 0.389
31 | ChaGo-K-1 | 0.562 | 0.651 | 0.571 | 0.553
32 | NCI-H661 | 0.916 | 0.903 | 0.898 | 0.927
33 | COR-L23 | 0.658 | 0.618 | 0.669 | 0.513
34 | COR-L 105 | 0.651 | 0.931 | 0.845 | 0.895
35 | LK-2 |  | 0.185 | 0.181 | 0.158
